Assays:
Assay in all cases: relative viability (nuclei count vs DMSO), 5 days (fraction); higher = more cells survive
Linsitinib + Palbociclib = compound: C[C@]1(O)C[C@@H](c2nc(-c3ccc4ccc(-c5ccccc5)nc4c3)c3c(N)nccn32)C1 [Linsitinib] + CC(=O)c1c(C)c2cnc(Nc3ccc(N4CCNCC4)cn3)nc2n(C2CCCC2)c1=O [Palbociclib] (partner 0.5 µM)
In short: (§1)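 Lung cancer cell lines in 1536-well plates got either a single drug or a fixed anchor-drug dose together with five library-drug doses (not always all listed) in √10 steps, by pin tool, on the day after seeding. Nuclei were counted after 5 days, and relative viability is the treated-to-vehicle ratio of nuclei counts. Values are medians of duplicate plates.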

Ispinesib + Navitoclax = compound: Cc1ccc(C(=O)N(CCCN)[C@@H](c2nc3cc(Cl)ccc3c(=O)n2Cc2ccccc2)C(C)C)cc1 [Ispinesib] + CC1(C)CCC(c2ccc(Cl)cc2)=C(CN2CCN(c3ccc(C(=O)NS(=O)(=O)c4ccc(N[C@H](CCN5CCOCC5)CSc5ccccc5)c(S(=O)(=O)C(F)(F)F)c4)cc3)CC2)C1 [Navitoclax] (partner 0.5 µM)
In short: as §1

Ispinesib + Tozasertib = compound: Cc1ccc(C(=O)N(CCCN)[C@@H](c2nc3cc(Cl)ccc3c(=O)n2Cc2ccccc2)C(C)C)cc1 [Ispinesib] + Cc1cc(Nc2cc(N3CCN(C)CC3)nc(Sc3ccc(NC(=O)C4CC4)cc3)n2)n[nH]1 [Tozasertib] (partner 0.1 µM)
In short: as §1

| Cell Line | relative viability (Linsitinib + Palbociclib; first compound 0.01 µM) | relative viability (Linsitinib + Palbociclib; first compound 0.03162 µM) | relative viability (Linsitinib + Palbociclib; first compound 0.1 µM) | relative viability (Linsitinib + Palbociclib; first compound 0.3162 µM) | relative viability (Linsitinib + Palbociclib; first compound 1 µM) | relative viability (Ispinesib + Navitoclax; first compound 0.001 µM) | relative viability (Ispinesib + Navitoclax; first compound 0.003162 µM) | relative viability (Ispinesib + Navitoclax; first compound 0.01 µM) | relative viability (Ispinesib + Navitoclax; first compound 0.03162 µM) | relative viability (Ispinesib + Navitoclax; first compound 0.1 µM) | relative viability (Ispinesib + Tozasertib; first compound 0.001 µM) | relative viability (Ispinesib + Tozasertib; first compound 0.003162 µM) | relative viability (Ispinesib + Tozasertib; first compound 0.01 µM) | relative viability (Ispinesib + Tozasertib; first compound 0.03162 µM) | relative viability (Ispinesib + Tozasertib; first compound 0.1 µM) |
| --- | --- | --- | --- | --- | --- | --- | --- | --- | --- | --- | --- | --- | --- | --- | --- |
| NCI-H2228 | 0.809 | 0.62 | 0.619 | 0.546 | 0.513 | 0.896 | 0.896 | 1.37 | 0.878 | 0.187 | 0.299 | 0.28 | 0.236 | 0.152 | 0.365 |
| EKVX | – | 0.408 | 0.39 | 0.288 | 0.316 | 1.07 | 0.964 | 1.06 | 0.75 | 0.22 | 0.417 | 0.386 | 0.424 | 0.373 | 0.223 |
| HCC-827 | 0.408 | 0.572 | 0.468 | – | 0.529 | 0.996 | 1.06 | 1.03 | 1 | 1.01 | 0.43 | 0.534 | 0.43 | 0.446 | 0.372 |
| NCI-H1755 | 0.475 | 0.48 | 0.467 | 0.345 | 0.444 | 1.01 | 1.15 | 1.09 | 0.917 | 0.7 | 0.529 | 0.627 | 0.595 | 0.638 | 0.46 |
| NCI-H1944 | 0.398 | 0.418 | 0.286 | 0.303 | 0.296 | 0.994 | 1.09 | 1.02 | 0.785 | 0.806 | 0.263 | 0.249 | 0.275 | 0.225 | 0.234 |
| NCI-H23 | 0.519 | 0.415 | 0.415 | 0.326 | 0.313 | 0.803 | 0.783 | 1.04 | 0.794 | 0.472 | 0.428 | 0.414 | 0.74 | 0.33 | 0.272 |
| HCC-366 | 0.441 | 0.394 | 0.359 | 0.303 | 0.328 | 1.16 | 1.02 | 1.31 | 1.2 | 0.27 | 0.172 | 0.13 | 0.663 | 0.0791 | 0.0441 |
| ChaGo-K-1 | 0.926 | 0.897 | 0.974 | – | 0.978 | 1.11 | 1.45 | 0.995 | 0.732 | 0.335 | 0.22 | 0.225 | 0.234 | 0.248 | 0.222 |
| LCLC-97TM1 | 0.223 | 0.205 | 0.191 | 0.195 | 0.212 | 0.433 | 0.489 | 0.52 | 0.557 | 0.157 | 0.196 | 0.143 | 0.215 | 0.173 | 0.191 |
| EMC-BAC-2 | 0.512 | 0.509 | 0.493 | 0.478 | 0.425 | 1.2 | 1.35 | 1.28 | 1.08 | 0.758 | 0.28 | 0.189 | 0.289 | 0.292 | 0.261 |
| NCI-H441 | 0.197 | 0.226 | 0.199 | 0.138 | 0.119 | 0.764 | 0.477 | 0.587 | 0.238 | 0.218 | 0.681 | 0.603 | 0.673 | 0.258 | 0.341 |
| HOP-62 | 0.435 | 0.424 | 0.49 | – | 0.45 | 1.19 | 1.12 | 1.53 | 1.12 | 0.171 | 0.373 | 0.47 | 0.389 | 0.449 | 0.406 |
| NCI-H1793 | 0.288 | 0.342 | 0.283 | 0.26 | 0.26 | 0.464 | 0.729 | 0.382 | 0.394 | 0.405 | 0.322 | 0.345 | 0.724 | 0.288 | 0.368 |
| NCI-H1355 | 0.384 | 0.345 | 0.309 | 0.308 | 0.269 | 0.996 | 0.878 | 0.927 | 1.08 | 0.688 | 0.566 | 0.608 | 0.548 | 0.503 | 0.486 |
| COR-L23 | 0.278 | 0.3 | 0.249 | 0.198 | 0.226 | 1.06 | 1.15 | 1.34 | 0.192 | 0.124 | 0.26 | 0.231 | 0.204 | 0.178 | 0.152 |
| HCC-44 | 0.962 | 0.928 | 0.879 | 0.785 | 0.825 | 1.02 | 1 | 1.2 | 1.05 | 0.265 | 0.928 | 1.05 | 1.09 | 0.679 | 0.209 |
| A-427 | 0.516 | 0.568 | 0.535 | – | 0.494 | 0.938 | 0.995 | 1.06 | 0.827 | 0.903 | 0.203 | 0.216 | 0.189 | 0.185 | 0.23 |
| NCI-H520 | 0.175 | 0.212 | 0.244 | – | 0.215 | 1.02 | 1.14 | 1.04 | 0.274 | 0.286 | 0.419 | 0.466 | 0.41 | 0.499 | 0.422 |
| LXF-289 | 0.565 | 0.62 | 0.607 | 0.493 | 0.614 | 0.934 | 0.995 | 1.12 | 0.922 | 0.469 | 0.235 | 0.171 | 0.175 | 0.151 | 0.152 |
| NCI-H2087 | 0.205 | 0.268 | 0.15 | 0.175 | 0.299 | 0.976 | 1.07 | 1.23 | 0.933 | 0.156 | 0.301 | 0.246 | 0.29 | 0.261 | 0.155 |

From the supplement of paper PMC10307832
